Reference: patent US4067997A, “Synergistic microbecidal composition and method” (priority 1976, dated 1978)
≈ marks a conversion by molar mass, not a printed value.

Tests used:
Nocardia asteroides = experiment: MIC, broth dilution (Examples I/II); format: cell-based, Nocardia asteroids (3308); settings: Nocardia asteroides; read-out: Inhibitory concentration
Summary of the method: (§1)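 Broth macrodilution in TSB, 1,000→125 μg/ml twofold, compounds sonicated into suspension; inoculum 18-hr (or 13–24 hr) culture, ~10^9 organisms/ml; 35–36° C, 5% CO2 atmosphere in one series. MIC = lowest concentration with no growth by turbidity; agar subculture where compound turbid. Molar basis.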

Saccharomyces cerevisiae = experiment: MIC, broth dilution (Example II); format: cell-based; settings: 18 h, read-out: Inhibitory concentration
Experimental: (§2) Standard solutions (1000 μg/ml) of three fatty acids and polyglycerol esters thereof were prepared as described in Example I. Also sucrose esters were prepared by transferring the weighed compounds (0.2 gm. dissolved in 1 ml absolute methanol) into 200 ml of sterile Trypticase Soy Broth (TSB). These standard solutions (1000 μg/ml) were twofold serially diluted with additional sterile broth to a concentration of 125 μg/ml. A 3.8 aliquot of each dilution was asceptically delivered into sterile screw-capped culture tubes. All tubes were incubated overnight at 36° C to insure sterility. The microorganisms used in this example were the same as those used in Example I.
(§3) The inoculum, 0.05 ml of an 13-24 hour TSB culture (approximately 10^9 organisms/ml) was asceptically delivered into all dilutions of the compounds, mixed well, and incubated at 36° C. A tube of inoculated broth without the compound served as a positive control and an uninoculated set of dilutions incubated along with the test dilutions, served as a negative control.
In those cases in which the test compound itself caused turbidity, an aliquot (0.015 ml) of the mixed broth was inoculated onto an agar plate and incubated at 36° C for examination, as described in Example I. The control procedure of Example I was also repeated. […]

S. aureus = experiment: MIC, broth dilution (Examples I/II); format: cell-based, Staphylococcus aureus; settings: Staphylococcus aureus; S. aureus; read-out: Inhibitory concentration
Experimental: (§4) In order to establish comparative bactericidal and fungicidal results with homologous fatty acids, a series of experiments was performed with thirty straight-chain fatty acids and derivatives thereof. Eight different gram-negative and twelve different gram-positive organisms, representing a very broad spectrum of organisms, were used in these experiments including the fungus Candida (a yeast). Additionally, fatty acids were chosen to show the effects of saturation versus unsaturation, in the fatty acid claim. Standard solutions of the fatty acids and their derivatives were prepared by first dissolving the weighed compounds in 1 to 2 ml of 95% ethanol and immediately pouring this solution into 200 ml of Tripticase Soy Broth. These lipid compounds which are insoluble in water and broth precipitated into very small crystals or droplets. The tubes containing the suspension were warmed to approximately 70° C and were then placed in an ultrasonic tank for further solubilization of the lipid derivatives.
(§5) Standard solutions (or suspensions) at 1,000 μg/ml were twofold serially diluted with additional broth to a concentration of 125 μg/ml. A 4-ml amount of each dilution was then quickly, and with constant agitation, dispensed into appropriately labeled screw-capped glass tubes (16 by 125 mm). The tubes were sterilized with steam at 15 psi for 15 minutes. After sterilization, all tubes were cooled and incubated overnight at 35° C to insure sterility.
(§6) All compounds were compared on a molar (micromoles/milliliter) rather than on a mass basis. In the following lists of organisms used, those followed by a parenthetical number are registered with the American Type Culture Collection (ATCC); the remainder were isolates from Providence Hospital or Northland Laboratory.
One drop (0.04 ± 0.01 ml) of an 18-hr broth culture containing 10^7 and 10^9 organisms/ml was added to each dilution of the test compound, as well as to a tube of plain broth which served as the positive control. […]

Streptococcus Group A = experiment: MIC, broth dilution (Examples I/II); format: cell-based, beta-hemolytic streptococci Group A; settings: Group A Strep; read-out: Inhibitory concentration
Summary of the method: as §1

Streptococcus Group D = experiment: MIC, broth dilution (Examples I/II); format: cell-based; settings: Group D Strep
Experimental: as §4, §5, §6
One drop (0.04 ± 0.01 ml) of an 18-hr broth culture containing 10^7 and 10^9 organisms/ml was added to each dilution of the test compound, as well as to a tube of plain broth which served as the positive control. After inoculation, the contents of each tube were well mixed, and the tubes were incubated at 35° C in a 5% carbon dioxide + […] atmosphere.
The MIC is defined as the lowest concentration of compound at which no […] evidence of growth was observed when turbidity of the inoculated broth dilutions was compared with control tubes. […] Only a one-tube difference between the bactericidal and bacteriostatic concentrations was normally observed.
as §2, §3
In those cases in which the test compound itself caused turbidity, an aliquot (0.015 ml) of the mixed broth was inoculated onto an agar plate and incubated at 36° C for examination, as described in Example I. The control procedure of Example I was also repeated. The lauric, capric, and oleic acids were used as internal controls and for comparison to Example I. The minimal inhibitory concentrations (μmole/ml) for the compounds studied are given in Tables 7 and 8.

E. coli = experiment: MIC, broth dilution (Example II); format: cell-based, Escherichia coli
Experimental: Proteus vulgaris, P. mirabilis (14273), P. rettgeri (9250), Escherichia coli, Serratia marcescens (13880), Enterobacter-Klebsiella, Pseudomonas aeruginosa (10145), and Salmonella typhimurium.
as §2
as §3, with “control. […]” for “control.”

CCCCCCCCCCC(O)C(=O)OC (stereo not drawn) [Methyl, α-hydroxylaurate]
MIC (Nocardia asteroides): 4340 µM (≈ 1000 µg/mL) | MIC (Saccharomyces cerevisiae): 540 µM (≈ 124 µg/mL) | MIC (S. aureus): 540 µM (≈ 124 µg/mL) | MIC (Streptococcus Group A): 540 µM (≈ 124 µg/mL) | Inhibition in words (Streptococcus Group D): Neither compound was inhibitory | Inhibition in words (E. coli): Neither compound was inhibitory
